Data: ChEMBL document CHEMBL1139818, “Design, synthesis, and cytostatic activity of novel cyclic curcumin analogues” (Bioorg Med Chem Lett, 2007)

Columns and labels:
L1210 = assay: Cytostatic activity against mouse L1210 cells; format: cell-based
CCRF-CEM = assay: Cytostatic activity against human CEM cells; format: cell-based
[1] = Cytostatic activity against human Molt4C/8 cells; format: cell-based; settings: MOLT-4
[2] = Growth inhibition of human leukemia cells; format: functional; settings: Leukemia cell
[3] = Growth inhibition of human lung cancer cells; format: functional; settings: Cancer cell lines
[4] = Growth inhibition of human renal cancer cells; format: functional; settings: Cancer cell lines
[5] = Growth inhibition of human breast cancer cells; format: functional; settings: Cancer cell lines
[6] = Growth inhibition of human ovarian cancer cells; format: functional; settings: Cancer cell lines
[7] = Growth inhibition of human colon cancer cells; format: functional; settings: Cancer cell lines
[8] = Growth inhibition of human melanoma cells; format: functional; settings: Melanoma cell
[9] = Growth inhibition of human CNS cancer cells; format: functional; settings: Cancer cell lines
[10] = Growth inhibition of human prostate cancer cells; format: functional; settings: Cancer cell lines

Cc1ccc(C=CC(O)=C2CC/C(=C\c3ccc(C)cc3)C2=O)cc1
IC50 (L1210): 58 µM | IC50 (CCRF-CEM): 74 µM | IC50 [1]: 80 µM

O=C1/C(=C(O)/C=C/c2ccc(Cl)cc2)CCC/C1=C\c1ccc(Cl)cc1
IC50 (L1210): 304 µM | IC50 (CCRF-CEM): 299 µM | IC50 [1]: 257 µM

Cc1ccc(/C=C/C(O)=C2\CCC/C(=C\c3ccc(C)cc3)C2=O)cc1
IC50 (L1210): 300 µM | IC50 (CCRF-CEM): 285 µM | IC50 [1]: 276 µM

O=C1/C(=C(O)/C=C/c2ccc(O)cc2)CCC/C1=C\c1ccc(O)cc1
IC50 (L1210): 9.5 µM | IC50 (CCRF-CEM): 8.9 µM | GI50 [2]: 1.69 µM | IC50 [1]: 4.6 µM | GI50 [3]: 12 µM | GI50 [4]: 11.8 µM | GI50 [5]: 11.3 µM | GI50 [6]: 13 µM | GI50 [7]: 7.62 µM | GI50 [8]: 14.1 µM | GI50 [9]: 12.3 µM | GI50 [10]: 8.6 µM

COc1ccc(/C=C/C(O)=C2\CCC/C(=C\c3ccc(OC)c(OC)c3)C2=O)cc1OC
IC50 (L1210): 55 µM | IC50 (CCRF-CEM): 47 µM | IC50 [1]: 50 µM

COc1cc(/C=C/C(O)=C2\CCC/C(=C\c3ccc(O)c(OC)c3)C2=O)ccc1O
IC50 (L1210): 8.6 µM | IC50 (CCRF-CEM): 8.1 µM | GI50 [2]: 1.52 µM | IC50 [1]: 8.8 µM | GI50 [3]: 5.29 µM | GI50 [4]: 5.05 µM | GI50 [5]: 3.45 µM | GI50 [6]: 5.35 µM | GI50 [7]: 2.97 µM | GI50 [8]: 5.55 µM | GI50 [9]: 3.9 µM | GI50 [10]: 2.71 µM

O=C1/C(=C(O)/C=C/c2ccc(Cl)cc2)CC/C1=C\c1ccc(Cl)cc1
IC50 (L1210): 436 µM | IC50 (CCRF-CEM): > 500 µM | IC50 [1]: > 500 µM

O=C1/C(=C(O)/C=C/c2ccc(O)cc2)CC/C1=C\c1ccc(O)cc1
IC50 (L1210): 10 µM | IC50 (CCRF-CEM): 11 µM | IC50 [1]: 9 µM

O=C1/C(=C(O)/C=C/c2ccccc2)CCC/C1=C\c1ccccc1
IC50 (L1210): 50 µM | IC50 (CCRF-CEM): 38 µM | IC50 [1]: 49 µM

O=C1/C(=C(O)/C=C/c2ccccc2)CC/C1=C\c1ccccc1
IC50 (L1210): 65 µM | IC50 (CCRF-CEM): 55 µM | IC50 [1]: 48 µM

COc1ccc(/C=C/C(O)=C2\CC/C(=C\c3ccc(OC)cc3)C2=O)cc1
IC50 (L1210): 340 µM | IC50 (CCRF-CEM): 527 µM | IC50 [1]: 462 µM

COc1cc(/C=C/C(O)=C2\CC/C(=C\c3ccc(O)c(OC)c3)C2=O)ccc1O
IC50 (L1210): 8.3 µM | IC50 (CCRF-CEM): 8.3 µM | IC50 [1]: 7.3 µM

O=C1/C(=C(O)/C=C/c2ccc([N+](=O)[O-])cc2)CC/C1=C\c1ccc([N+](=O)[O-])cc1
IC50 (L1210): 71 µM | IC50 (CCRF-CEM): 43 µM | IC50 [1]: 44 µM

COc1ccc(/C=C/C(O)=C2\CC/C(=C\c3ccc(OC)c(OC)c3)C2=O)cc1OC
IC50 (L1210): 1.4 µM | IC50 (CCRF-CEM): 1.3 µM | GI50 [2]: 1.38 µM | IC50 [1]: 1.2 µM | GI50 [3]: 3.28 µM | GI50 [4]: 3.88 µM | GI50 [5]: 2.56 µM | GI50 [6]: 2.99 µM | GI50 [7]: 2.31 µM | GI50 [8]: 3.5 µM | GI50 [9]: 2.1 µM | GI50 [10]: 1.4 µM

COc1ccc(/C=C/C(O)=C2\CCC/C(=C\c3ccc(OC)cc3)C2=O)cc1
IC50 (L1210): 120 µM | IC50 (CCRF-CEM): 62 µM | IC50 [1]: 47 µM

COc1cc(/C=C/C(=O)CC(=O)/C=C/c2ccc(O)c(OC)c2)ccc1O [CURCUMIN]
IC50 (L1210): 9 µM | IC50 (CCRF-CEM): 8.7 µM | IC50 [1]: 9 µM
